Measurements as given in US9346809B2 (LEO PHARMA A/S, priority 2009, dated 2016).
pEC50: −log10 of the molar value. Like-named read-outs stand apart in the source and are kept apart here.

Assays:
Type in all cases: biochemical
[1] = target: T1, JAK1 (aa 850-1154, catalytic domain, GST-tag) (Homo sapiens, UniProt P23458); test: JAK kinase assay (HTRF, phosphorylation of TK substrate-biotin), JAK1; conditions: ATP at Km (7 μM)
T1 construct: JAK1 (aa 850-1154) and TYK2 (aa 871-1187) are expressed with an N-terminally fused GST-tag; GST (N); purchased Carna Biosciences, Inc; host or cells: baculovirus expression system
Outline: (§1)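 Per reaction, 5 ng JAK1, 0.1 ng JAK2, 0.3 ng JAK3 or 0.8 ng TYK2 (baculovirus-expressed catalytic domains) acted on 1 μM TK substrate-biotin at Km ATP for 20-30 min, RT. Phosphorylation measured by HTRF.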

[2] = target: T2, JAK2 (catalytic domain, His-tag) (Homo sapiens, UniProt O60674); test: JAK kinase assay (HTRF, phosphorylation of TK substrate-biotin), JAK2; conditions: ATP at Km (4 μM)
T2 construct: All four purified enzymes contain only the catalytic domain; His (N); purchased Carna Biosciences, Inc; host or cells: baculovirus expression system
Outline: as §1

[3] = target: T3, JAK3 (catalytic domain, His-tag) (Homo sapiens, UniProt P52333); test: JAK kinase assay (HTRF, phosphorylation of TK substrate-biotin), JAK3; conditions: ATP at Km (2 μM)
T3 construct: All four purified enzymes contain only the catalytic domain; His (N); purchased Carna Biosciences, Inc; host or cells: baculovirus expression system
Outline: as §1

[4] = target: T4, TYK2 (aa 871-1187, catalytic domain, GST-tag) (Homo sapiens, UniProt P29597); test: JAK kinase assay (HTRF, phosphorylation of TK substrate-biotin), TYK2; conditions: ATP at Km (13 μM)
T4 construct: JAK1 (aa 850-1154) and TYK2 (aa 871-1187) are expressed with an N-terminally fused GST-tag; GST (N); purchased Carna Biosciences, Inc; host or cells: baculovirus expression system
T4 sequence (P29597 871-1187): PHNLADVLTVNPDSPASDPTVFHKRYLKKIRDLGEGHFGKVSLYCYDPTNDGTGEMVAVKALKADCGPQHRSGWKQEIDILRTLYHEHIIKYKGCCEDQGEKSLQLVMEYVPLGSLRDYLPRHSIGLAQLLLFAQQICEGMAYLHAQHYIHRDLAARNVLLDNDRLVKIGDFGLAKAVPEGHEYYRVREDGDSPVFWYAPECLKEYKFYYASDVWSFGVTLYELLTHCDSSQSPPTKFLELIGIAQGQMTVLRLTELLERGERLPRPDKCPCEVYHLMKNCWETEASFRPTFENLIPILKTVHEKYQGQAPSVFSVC
Outline: as §1

[5] = HTRF assay, read-out: JAK1 kinase inhibitory activity (EC50 indicator)
[6] = HTRF assay, read-out: JAK2 kinase inhibitory activity (EC50 indicator)
[7] = HTRF assay, read-out: JAK3 kinase inhibitory activity (EC50 indicator)
[8] = HTRF assay, read-out: TYK2 kinase inhibitory activity (EC50 indicator)
[9] = read-out: JAK1 kinase inhibitory activity (EC50 indicator)
[10] = read-out: JAK2 kinase inhibitory activity (EC50 indicator)
[11] = read-out: JAK3 kinase inhibitory activity (EC50 indicator)
[12] = read-out: TYK2 kinase inhibitory activity (EC50 indicator)

T2 sequence (O60674 849-1124 limits assumed): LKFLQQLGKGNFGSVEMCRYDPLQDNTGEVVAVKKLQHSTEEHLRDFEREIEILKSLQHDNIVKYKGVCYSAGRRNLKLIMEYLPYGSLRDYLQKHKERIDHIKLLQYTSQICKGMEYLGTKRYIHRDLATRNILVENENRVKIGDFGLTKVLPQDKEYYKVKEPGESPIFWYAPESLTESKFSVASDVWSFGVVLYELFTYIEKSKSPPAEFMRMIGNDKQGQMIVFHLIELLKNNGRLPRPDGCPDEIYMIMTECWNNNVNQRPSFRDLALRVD
T1 sequence (P23458 850-1154): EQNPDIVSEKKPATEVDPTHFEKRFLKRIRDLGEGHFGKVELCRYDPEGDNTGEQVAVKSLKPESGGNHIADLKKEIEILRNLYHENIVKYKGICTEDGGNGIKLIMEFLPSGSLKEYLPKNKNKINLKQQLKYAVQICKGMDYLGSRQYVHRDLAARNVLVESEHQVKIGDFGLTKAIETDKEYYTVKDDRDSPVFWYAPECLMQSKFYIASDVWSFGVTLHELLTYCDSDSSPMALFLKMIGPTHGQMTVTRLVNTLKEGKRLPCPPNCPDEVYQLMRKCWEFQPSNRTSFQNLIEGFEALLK
T3 sequence (P52333 822-1111 limits assumed): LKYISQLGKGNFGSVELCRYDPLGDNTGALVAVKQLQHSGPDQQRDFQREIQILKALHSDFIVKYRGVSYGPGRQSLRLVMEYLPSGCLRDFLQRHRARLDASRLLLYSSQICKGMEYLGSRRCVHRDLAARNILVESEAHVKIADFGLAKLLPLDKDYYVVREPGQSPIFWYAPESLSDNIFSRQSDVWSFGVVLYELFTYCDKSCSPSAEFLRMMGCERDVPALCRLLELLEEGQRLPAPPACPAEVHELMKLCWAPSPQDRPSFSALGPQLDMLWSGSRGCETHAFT

| Structure (SMILES) | pEC50 [1, 5] | pEC50 [2, 6] | pEC50 [3, 7] | pEC50 [4, 8] | pEC50 [1, 9] | pEC50 [2, 10] | pEC50 [3, 11] | pEC50 [4, 12] | other results |
| --- | --- | --- | --- | --- | --- | --- | --- | --- | --- |
| O=C(Cc1cc(Br)cs1)N1CCN(c2ncnc3[nH]ccc23)CC12CC2 [Example 387, 2-(4-Bromo-thiophen-2-yl)-1-[7-(7H-pyrrolo[2,3-d]pyrimidin-4-yl)-4,7-diaza-spiro[2.5]oct-4-yl]-ethanone] | > 7.00 | > 7.00 | > 7.00 | 6.30 to 7.00 |  |  |  |  |  |
| O=C(OCc1ccccc1)N1[C@@H]2CC[C@H]1CN(c1ncnc3[nH]ccc13)C2 [Example 58, 3-(7H-Pyrrolo[2,3-d]pyrimidin-4-yl)-3,8-diazabicyclo[3.2.1]octane-8-carboxylic acid benzyl ester] |  |  |  |  | > 7.00 | > 7.00 | 6.30 to 7.00 | < 6.30 |  |
| CC(C)(C)OC(=O)N1CCN(c2ncnc3[nH]ccc23)CC12CC2 [Example 45, 7-(7H-pyrrolo[2,3-d]pyrimidin-4-yl)-4,7-diazaspiro[2.5]octane-4-carboxylic acid tert-butyl ester] |  |  |  |  | > 7.00 | > 7.00 | > 7.00 | < 6.30 |  |
| CS(=O)(=O)NCCC(=O)N1[C@@H]2CC[C@@H]1CN(c1ncnc3[nH]ccc13)C2 [Example 176, N-{3-Oxo-3-[3-(7H-pyrrolo[2,3-d]pyrimidin-4-yl)-3,8-diaza-bicyclo[3.2.1]oct-8-yl]-propyl}-methanesulfonamide] |  |  |  |  | 6.30 to 7.00 | 6.30 to 7.00 | < 6.30 | < 6.30 |  |
| N#Cc1ccc(C(=O)C(=O)N2C3CCC2CN(c2ncnc4[nH]ccc24)C3)cc1 [Example 128, 4-{2-Oxo-2-[3-(7H-pyrrolo[2,3-d]pyrimidin-4-yl)-3,8-diaza-bicyclo[3.2.1]oct-8-yl]-acetyl}-benzonitrile] |  |  |  |  | > 7.00 | > 7.00 | 6.30 to 7.00 | < 6.30 |  |
| O=C(c1ccc(S(=O)(=O)CCO)cc1)N1CCN(c2ncnc3[nH]ccc23)CC12CC2 [Example 406, [4-(2-Hydroxy-ethanesulfonyl)-phenyl]-[7-(7H-pyrrolo[2,3-d]pyrimidin-4-yl)-4,7-diaza-spiro[2.5]oct-4-yl]-methanone] | > 7.00 | > 7.00 | 6.30 to 7.00 | 6.30 to 7.00 |  |  |  |  |  |
| O=C(c1ccccn1)N1[C@@H]2CC[C@@H]1CN(c1ncnc3[nH]ccc13)C2 [Example 241, Pyridin-2-yl-[3-(7H-pyrrolo[2,3-d]pyrimidin-4-yl)-3,8-diaza-bicyclo[3.2.1]oct-8-yl]-methanone] | > 7.00 | > 7.00 | 6.30 to 7.00 | < 6.30 |  |  |  |  |  |
| O=C(c1cccc2[nH]ccc12)N1CCN(c2ncnc3[nH]ccc23)CC12CC2 [Example 159, (1H-Indol-4-yl)-[7-(7H-pyrrolo[2,3-d]pyrimidin-4-yl)-4,7-diaza-spiro[2.5]oct-4-yl]-methanone] |  |  |  |  | > 7.00 | > 7.00 | 6.30 to 7.00 | 6.30 to 7.00 |  |
| Cc1c[nH]c2ncnc(N3CCN(C(=O)c4cccc(C#N)c4)C4(CC4)C3)c12 [Example 119, 3-[7-(5-Methyl-7H-pyrrolo[2,3-d]pyrimidin-4-yl)-4,7-diaza-spiro[2.5]octane-4-carbonyl]-benzonitrile] |  |  |  |  | < 6.30 | < 6.30 | < 6.30 | < 6.30 |  |
| O=C(c1ccc(OC(F)(F)F)cc1)N1[C@@H]2CC[C@@H]1CN(c1ncnc3[nH]ccc13)C2 [Example 251, [3-(7H-Pyrrolo[2,3-d]pyrimidin-4-yl)-3,8-diaza-bicyclo[3.2.1]oct-8-yl]-(4-trifluoromethoxy-phenyl)-methanone] | > 7.00 | 6.30 to 7.00 | 6.30 to 7.00 | < 6.30 |  |  |  |  |  |
| N#CCCCC(=O)N1[C@@H]2CC[C@@H]1CN(c1ncnc3[nH]ccc13)C2 [Example 352, 5-Oxo-5-[3-(7H-pyrrolo[2,3-d]pyrimidin-4-yl)-3,8-diaza-bicyclo[3.2.1]oct-8-yl]-pentanenitrile] | > 7.00 | > 7.00 | 6.30 to 7.00 | < 6.30 |  |  |  |  |  |
| NS(=O)(=O)c1ccc(OCC(=O)N2CCN(c3ncnc4[nH]ccc34)CC23CC3)c(F)c1 [Example 434, 3-Fluoro-4-{2-oxo-2-[7-(7H-pyrrolo[2,3-d]pyrimidin-4-yl)-4,7-diaza-spiro[2.5]oct-4-yl]-ethoxy}-benzenesulfonamide] |  |  |  |  |  |  |  |  | pEC50 ([1]; HTRF assay, read-out: JAK1 kinase inhibitory activity (EC50)): > 7.00; pEC50 ([2]; HTRF assay, read-out: JAK2 kinase inhibitory activity (EC50)): > 7.00; pEC50 ([3]; HTRF assay, read-out: JAK3 kinase inhibitory activity (EC50)): > 7.00; pEC50 ([4]; HTRF assay, read-out: TYK2 kinase inhibitory activity (EC50)): > 7.00 |
| CC1CN(C(=O)c2ccc(C#N)cc2)C2(CC2)CN1c1ncnc2[nH]ccc12 (stereo not shown) [Example 148, 4-[6-Methyl-7-(7H-pyrrolo[2,3-d]pyrimidin-4-yl)-4,7-diaza-spiro[2.5]octane-4-carbonyl]-benzonitrile] |  |  |  |  | > 7.00 | > 7.00 | 6.30 to 7.00 | < 6.30 |  |
| O=C(c1cccc(OC(F)(F)F)c1)N1CCN(c2ccnc3[nH]ccc23)CC12CC2 [Example 229, [7-(1H-Pyrrolo[2,3-b]pyridin-4-yl)-4,7-diaza-spiro[2.5]oct-4-yl]-(3-trifluoromethoxy-phenyl)-methanone] | 6.30 to 7.00 | 6.30 to 7.00 | < 6.30 | < 6.30 |  |  |  |  |  |
| O=C(Cc1ccc(C(F)(F)F)cc1)N1[C@@H]2CC[C@@H]1CN(c1ncnc3[nH]ccc13)C2 [Example 349, 1-[3-(7H-Pyrrolo[2,3-d]pyrimidin-4-yl)-3,8-diaza-bicyclo[3.2.1]oct-8-yl]-2-(4-trifluoromethyl-phenyl)-ethanone] | 6.30 to 7.00 | 6.30 to 7.00 | 6.30 to 7.00 | < 6.30 |  |  |  |  |  |
| CNS(=O)(=O)c1cc(C(=O)N2CCN(c3ncnc4[nH]ccc34)CC23CC3)sc1C [Example 375, 2-Methyl-5-[7-(7H-pyrrolo[2,3-d]pyrimidin-4-yl)-4,7-diaza-spiro[2.5]octane-4-carbonyl]-thiophene-3-sulfonic acid methylamide] | > 7.00 | > 7.00 | > 7.00 | 6.30 to 7.00 |  |  |  |  |  |
| COc1cc(S(N)(=O)=O)ccc1C(=O)N1CCN(c2ncnc3[nH]ccc23)CC12CC2 [Example 389, 3-Methoxy-4-[7-(7H-pyrrolo[2,3-d]pyrimidin-4-yl)-4,7-diaza-spiro[2.5]octane-4-carbonyl]-benzenesulfonamide] | > 7.00 | > 7.00 | > 7.00 | 6.30 to 7.00 |  |  |  |  |  |
| O=C(c1ccc2cc[nH]c2c1)N1[C@@H]2CC[C@@H]1CN(c1ncnc3[nH]ccc13)C2 [Example 357, (1H-Indol-6-yl)-[3-(7H-pyrrolo[2,3-d]pyrimidin-4-yl)-3,8-diaza-bicyclo[3.2.1]oct-8-yl]-methanone] | > 7.00 | > 7.00 | > 7.00 | 6.30 to 7.00 |  |  |  |  |  |
| COCCOC(=O)N1[C@@H]2CC[C@H]1CN(c1ncnc3[nH]ccc13)C2 [Example 12, 3-(7H-Pyrrolo[2,3-d]pyrimidin-4-yl)-3,8-diazabicyclo[3.2.1]octane-8-carboxylic acid 2-methoxyethyl ester] |  |  |  |  | 6.30 to 7.00 | 6.30 to 7.00 | < 6.30 | < 6.30 |  |
| Cc1c(C(=O)N2[C@H]3CC[C@H]2CN(c2ncnc4[nH]ccc24)C3)sc2ccccc12 [Example 245, (3-Methyl-benzo[b]thiophen-2-yl)-[3-(7H-pyrrolo[2,3-d]pyrimidin-4-yl)-3,8-diaza-bicyclo[3.2.1]oct-8-yl]-methanone] | > 7.00 | > 7.00 | > 7.00 | < 6.30 |  |  |  |  |  |
| CC(C)S(=O)(=O)c1ccc(C(=O)N2C3CCC2CN(c2ncnc4[nH]ccc24)C3)cc1 [Example 202, [4-(Propane-2-sulfonyl)-phenyl]-[3-(7H-pyrrolo[2,3-d]pyrimidin-4-yl)-3,8-diaza-bicyclo[3.2.1]oct-8-yl]-methanone] |  |  |  |  | 6.30 to 7.00 | 6.30 to 7.00 | < 6.30 | < 6.30 |  |
| Cc1cnc(C(=O)N2[C@@H]3CC[C@H]2CN(c2ncnc4[nH]ccc24)C3)cn1 [Example 74, (5-Methyl-pyrazin-2-yl)-[3-(7H-pyrrolo[2,3-d]pyrimidin-4-yl)-3,8-diaza-bicyclo[3.2.1]oct-8-yl]-methanone] |  |  |  |  | 6.30 to 7.00 | 6.30 to 7.00 | < 6.30 | < 6.30 |  |
